Results: the NIST ThermoML archive (doi:10.1016/j.jct.2015.05.006)
Numbers after ± are expanded uncertainties.

Tests used:
[1] = 101.33 kPa, Liquid, Vibrating tube method
[2] = relative permittivity at various frequencies (dimensionless); conditions: Liquid, Frequency=1 MHz, Parallel plate capacitor
[3] = xn = mol fraction of the nth substance listed; conditions: Liquid, Vibrating tube method, x1 = 1
[4] = relative permittivity at various frequencies (dimensionless); xn = mol fraction of the nth substance listed; conditions: Liquid, Frequency=1 MHz, Parallel plate capacitor, x1 = 1

CCCCCC [hexane]
[1]
Conditions	mass density [kg/m3]
288.15 K	664.13 ± 1
298.15 K	655.14 ± 1
308.15 K	646.1 ± 1

[2], 95.2 kPa
Conditions	relative permittivity
288.15 K	1.91 ± 0.02
298.15 K	1.89 ± 0.02
308.15 K	1.88 ± 0.02

C1CCCCC1 [cyclohexane] + COCCOC
96.6 kPa
Conditions	mass density, 288.15 K [kg/m3]	mass density, 298.15 K [kg/m3]	mass density, 308.15 K [kg/m3]	relative permittivity, 288.15 K	relative permittivity, 298.15 K	relative permittivity, 308.15 K
[3]	783.29 ± 1	773.86 ± 1	764.38 ± 1	–	–	–
[4]	–	–	–	2.04 ± 0.02	2.03 ± 0.02	2.02 ± 0.02

C1CCCCC1 [cyclohexane]
[1]
Conditions	mass density [kg/m3]
288.15 K	783.29 ± 1
298.15 K	773.86 ± 1
308.15 K	764.38 ± 1

[2], 96.6 kPa
Conditions	relative permittivity
288.15 K	2.04 ± 0.02
298.15 K	2.03 ± 0.02
308.15 K	2.02 ± 0.02

CCCCCCCC [octane]
[1]
Conditions	mass density [kg/m3]
288.15 K	706.6 ± 1
298.15 K	698.58 ± 1
308.15 K	690.48 ± 1

[2], 97.1 kPa
Conditions	relative permittivity
288.15 K	1.97 ± 0.02
298.15 K	1.96 ± 0.02
308.15 K	1.94 ± 0.02

CCCCCCCCCCCC [dodecane]
[1]
Conditions	mass density [kg/m3]
288.15 K	752.44 ± 1
298.15 K	745.29 ± 1
308.15 K	737.93 ± 1

[2], 97 kPa
Conditions	relative permittivity
288.15 K	2.04 ± 0.02
298.15 K	2.02 ± 0.02
308.15 K	2.01 ± 0.02

COCCOC [1,2-dimethoxyethane]
[1]
Conditions	mass density [kg/m3]
288.15 K	872.06 ± 1
298.15 K	861.17 ± 1
308.15 K	850.13 ± 1

[2], 96.5 kPa
Conditions	relative permittivity
288.15 K	7.41 ± 0.07
298.15 K	7.07 ± 0.07
308.15 K	6.75 ± 0.07

CCCCCCCC [octane] + COCCOC
97.1 kPa
Conditions	mass density, 288.15 K [kg/m3]	mass density, 298.15 K [kg/m3]	mass density, 308.15 K [kg/m3]	relative permittivity, 288.15 K	relative permittivity, 298.15 K	relative permittivity, 308.15 K
[3]	706.6 ± 1	698.58 ± 1	690.48 ± 1	–	–	–
[4]	–	–	–	1.97 ± 0.02	1.96 ± 0.02	1.94 ± 0.02

CCCCCCCCCCCC [dodecane] + COCCOC
97 kPa
Conditions	mass density, 288.15 K [kg/m3]	mass density, 298.15 K [kg/m3]	mass density, 308.15 K [kg/m3]	relative permittivity, 288.15 K	relative permittivity, 298.15 K	relative permittivity, 308.15 K
[3]	752.44 ± 1	745.29 ± 1	737.93 ± 1	–	–	–
[4]	–	–	–	2.04 ± 0.02	2.02 ± 0.02	2.01 ± 0.02

CCCCCC [hexane] + COCCOC
95.2 kPa
Conditions	mass density, 288.15 K [kg/m3]	mass density, 298.15 K [kg/m3]	mass density, 308.15 K [kg/m3]	relative permittivity, 288.15 K	relative permittivity, 298.15 K	relative permittivity, 308.15 K
[3]	664.13 ± 1	655.14 ± 1	646.1 ± 1	–	–	–
[4]	–	–	–	1.91 ± 0.02	1.89 ± 0.02	1.88 ± 0.02
